According to the NIST ThermoML archive (doi:10.1021/acs.jced.7b00083):
Numbers after ± are expanded uncertainties.

Test: molar enthalpy of vaporization or sublimation
Settings: 298.15 K; Crystal; Static calorimetry

With `S=C1NCCN1` [imidazolidine-2-thione] as the compound, how does the molar enthalpy read?
Its molar enthalpy is 25.7 ± 0.359 kcal/mol.
